# Experimental data published in PubChem BioAssay AID1259407 (Chemical Carcinogenesis Research Information System (CCRIS), 2018).
# Activity calls are given as the source filed them. The rule behind the calls is not given here.
# System: CCRIS mutagenicity, Ames/micronucleus/aberration tests
# Test: CCRIS mutagenicity studies
# [1] = Test System: AMES SALMONELLA TYPHIMURIUM, Strain/Indicator: TA98, Metabolic Activation: NONE, Method: STANDARD PLATE
# [2] = Test System: AMES SALMONELLA TYPHIMURIUM, Strain/Indicator: TA98, Metabolic Activation: S-9, Method: STANDARD PLATE
# [3] = Test System: AMES SALMONELLA TYPHIMURIUM, Strain/Indicator: TA100, Metabolic Activation: NONE, Method: STANDARD PLATE
# [4] = Test System: AMES SALMONELLA TYPHIMURIUM, Strain/Indicator: TA100, Metabolic Activation: S-9, Method: STANDARD PLATE
# [5] = Test System: AMES SALMONELLA TYPHIMURIUM, Strain/Indicator: TA102, Metabolic Activation: NONE, Method: STANDARD PLATE
# [6] = Test System: AMES SALMONELLA TYPHIMURIUM, Strain/Indicator: TA1535, Metabolic Activation: NONE, Method: STANDARD PLATE
# [7] = Test System: AMES SALMONELLA TYPHIMURIUM, Strain/Indicator: TA1537, Metabolic Activation: NONE, Method: STANDARD PLATE
# [8] = Test System: AMES SALMONELLA TYPHIMURIUM, Strain/Indicator: TA1538, Metabolic Activation: NONE, Method: STANDARD PLATE
smiles,measurement,setting,value
O=[N+]([O-])c1ccc2c(c1)oc1ccc([N+](=O)[O-])cc12,mutagenic call,"Test System: AMES SALMONELLA TYPHIMURIUM, Strain/Indicator: TA98(1,8-DNP6), Metabolic Activation: NONE, Method: PREINCUBATION",active; positive
same,mutagenic call,"Test System: AMES SALMONELLA TYPHIMURIUM, Strain/Indicator: TA98(1,8-DNP6), Metabolic Activation: NONE, Method: SUSPENSION",active; positive
same,mutagenic call,"Test System: AMES SALMONELLA TYPHIMURIUM, Strain/Indicator: TA98(1,8-DNP6), Metabolic Activation: RAT, LIVER, S-9, PCB (5%), Method: PREINCUBATION",active; positive
same,mutagenic call,"Test System: AMES SALMONELLA TYPHIMURIUM, Strain/Indicator: TA98(NR), Metabolic Activation: NONE, Method: PREINCUBATION",inactive; negative
same,mutagenic call,"Test System: AMES SALMONELLA TYPHIMURIUM, Strain/Indicator: TA98(NR), Metabolic Activation: NONE, Method: SUSPENSION",inactive; negative
same,mutagenic call,"Test System: AMES SALMONELLA TYPHIMURIUM, Strain/Indicator: TA98(NR), Metabolic Activation: RAT, LIVER, S-9 (10%), Method: PREINCUBATION",active; positive
same,mutagenic call,"Test System: AMES SALMONELLA TYPHIMURIUM, Strain/Indicator: TA98(NR), Metabolic Activation: RAT, LIVER, S-9, 3-METHYLCHOLANTHRENE (10%), Method: PREINCUBATION",active; positive
same,mutagenic call,"Test System: AMES SALMONELLA TYPHIMURIUM, Strain/Indicator: TA98(NR), Metabolic Activation: RAT, LIVER, S-9, BETA-NAPHTHOFLAVONE (10%), Method: PREINCUBATION",active; positive
same,mutagenic call,"Test System: AMES SALMONELLA TYPHIMURIUM, Strain/Indicator: TA98(NR), Metabolic Activation: RAT, LIVER, S-9, PCB (5 OR 10%), Method: PREINCUBATION",active; positive
same,mutagenic call,"Test System: AMES SALMONELLA TYPHIMURIUM, Strain/Indicator: TA98(NR), Metabolic Activation: RAT, LIVER, S-9, PHENOBARBITAL (10%), Method: PREINCUBATION",active; positive
same,mutagenic call,"Test System: AMES SALMONELLA TYPHIMURIUM, Strain/Indicator: TA98, Metabolic Activation: NONE, Method: PREINCUBATION",active; positive
same,mutagenic call,"Test System: AMES SALMONELLA TYPHIMURIUM, Strain/Indicator: TA98, Metabolic Activation: NONE, Method: SUSPENSION",active; positive
same,mutagenic call,"Test System: AMES SALMONELLA TYPHIMURIUM, Strain/Indicator: TA98, Metabolic Activation: RAT, LIVER, S-9, PCB (5%), Method: PREINCUBATION",active; positive
same,mutagenic call,"Test System: AMES SALMONELLA TYPHIMURIUM, Strain/Indicator: TA98, Metabolic Activation: RAT, LIVER, S-9, PCB, Method: SUSPENSION",active; positive
same,mutagenic call,"Test System: AMES SALMONELLA TYPHIMURIUM, Strain/Indicator: TA100, Metabolic Activation: NONE, Method: PREINCUBATION",inactive; negative
same,mutagenic call,"Test System: AMES SALMONELLA TYPHIMURIUM, Strain/Indicator: TA100, Metabolic Activation: NONE, Method: SUSPENSION",inactive; negative
same,mutagenic call,"Test System: AMES SALMONELLA TYPHIMURIUM, Strain/Indicator: TA100, Metabolic Activation: RAT, LIVER, S-9, PCB (5%), Method: PREINCUBATION",inactive; negative
same,mutagenic call,"Test System: AMES SALMONELLA TYPHIMURIUM, Strain/Indicator: TA100, Metabolic Activation: RAT, LIVER, S-9, PCB, Method: SUSPENSION",active; positive
CC(C)(C)c1cc(Cc2cc(C(C)(C)C)c(O)c(C(C)(C)C)c2)cc(C(C)(C)C)c1O,mutagenic call,"Test System: AMES SALMONELLA TYPHIMURIUM, Strain/Indicator: TA97, Metabolic Activation: NONE, Method: STANDARD PLATE",inactive; negative
same,mutagenic call,"Test System: AMES SALMONELLA TYPHIMURIUM, Strain/Indicator: TA97, Metabolic Activation: S-9, Method: STANDARD PLATE",inactive; negative
same,mutagenic call,[1],inactive; negative
same,mutagenic call,[2],inactive; negative
same,mutagenic call,[3],inactive; negative
same,mutagenic call,[4],inactive; negative
same,mutagenic call,[5],inactive; negative
same,mutagenic call,"Test System: AMES SALMONELLA TYPHIMURIUM, Strain/Indicator: TA102, Metabolic Activation: S-9, Method: STANDARD PLATE",inactive; negative
same,mutagenic call,"Test System: E.COLI, Strain/Indicator: WP2 (PKM101), Metabolic Activation: NONE, Method: STANDARD PLATE",inactive; negative
same,mutagenic call,"Test System: E.COLI, Strain/Indicator: WP2 (PKM101), Metabolic Activation: S-9, Method: STANDARD PLATE",inactive; negative
O=C1C=C(c2nnc(NC(=O)c3ccccc3)s2)C(=O)C=C1Nc1ccc([N+](=O)[O-])cc1,mutagenic call,[3],active; positive
O=S1(=O)CCCO1,mutagenic call,"Test System: AMES SALMONELLA TYPHIMURIUM, Strain/Indicator: TA100, Metabolic Activation: RAT, LIVER, S-9, KC500 OR PHENOBARBITAL, Method: LIQUID SUSPENSION",active; positive
same,mutagenic call,[6],active; positive
same,mutagenic call,"Test System: UDS HUMAN FIBROBLASTS, Strain/Indicator: THY INCORP (NON-S-PHASE), Metabolic Activation: NONE, Method: LIQUID SCINTILLATION COUNTING",active; positive
Cc1cccn2c(=O)c(-c3nnn[nH]3)cnc12,mutagenic call,[1],inactive; negative
same,mutagenic call,[2],inactive; negative
same,mutagenic call,[3],inactive; negative
same,mutagenic call,[4],inactive; negative
same,mutagenic call,[6],inactive; negative
same,mutagenic call,"Test System: AMES SALMONELLA TYPHIMURIUM, Strain/Indicator: TA1535, Metabolic Activation: S-9, Method: STANDARD PLATE",inactive; negative
same,mutagenic call,[7],inactive; negative
same,mutagenic call,"Test System: AMES SALMONELLA TYPHIMURIUM, Strain/Indicator: TA1537, Metabolic Activation: S-9, Method: STANDARD PLATE",inactive; negative
same,mutagenic call,[8],inactive; negative
same,mutagenic call,"Test System: AMES SALMONELLA TYPHIMURIUM, Strain/Indicator: TA1538, Metabolic Activation: S-9, Method: STANDARD PLATE",inactive; negative
same,mutagenic call,"Test System: E. COLI, Strain/Indicator: WP2 UVRA, Metabolic Activation: NONE, Method: STANDARD PLATE",inactive; negative
same,mutagenic call,"Test System: E. COLI, Strain/Indicator: WP2 UVRA, Metabolic Activation: S-9, Method: STANDARD PLATE",inactive; negative
CC(=O)OCc1c2ccccc2c2ccc3cccc4ccc1c2c43,mutagenic call,[1],active; positive
same,mutagenic call,[3],active; positive
CCC(=O)Oc1ccc(/C(CC)=C(\CC)c2ccc(OC(=O)CC)cc2)cc1,mutagenic call,[1],inactive; negative
same,mutagenic call,"Test System: AMES SALMONELLA TYPHIMURIUM, Strain/Indicator: TA98, Metabolic Activation: RAT, LIVER, S-9, Method: STANDARD PLATE",inactive; negative
same,mutagenic call,[3],inactive; negative
same,mutagenic call,"Test System: AMES SALMONELLA TYPHIMURIUM, Strain/Indicator: TA100, Metabolic Activation: RAT, LIVER, S-9, Method: STANDARD PLATE",inactive; negative
same,mutagenic call,[6],inactive; negative
same,mutagenic call,"Test System: AMES SALMONELLA TYPHIMURIUM, Strain/Indicator: TA1535, Metabolic Activation: RAT, LIVER, S-9, Method: STANDARD PLATE",inactive; negative
same,mutagenic call,[7],inactive; negative
same,mutagenic call,"Test System: AMES SALMONELLA TYPHIMURIUM, Strain/Indicator: TA1537, Metabolic Activation: RAT, LIVER, S-9, Method: STANDARD PLATE",inactive; negative
same,mutagenic call,[8],inactive; negative
same,mutagenic call,"Test System: AMES SALMONELLA TYPHIMURIUM, Strain/Indicator: TA1538, Metabolic Activation: RAT, LIVER, S-9, Method: STANDARD PLATE",inactive; negative
CC1OC(OC2CC(O)(CO)Cc3c(O)c4c(c(O)c32)C(=O)c2ccccc2C4=O)C(I)C(O)C1O (stereo not given),mutagenic call,"Test System: AMES SALMONELLA TYPHIMURIUM, Strain/Indicator: TA97A, Metabolic Activation: NONE, Method: STANDARD PLATE",inactive; negative
same,mutagenic call,"Test System: AMES SALMONELLA TYPHIMURIUM, Strain/Indicator: TA97A, Metabolic Activation: RAT, LIVER, S-9, AROCLOR 1254, Method: STANDARD PLATE",inactive; negative
same,mutagenic call,[1],inactive; negative
same,mutagenic call,"Test System: AMES SALMONELLA TYPHIMURIUM, Strain/Indicator: TA98, Metabolic Activation: RAT, LIVER, S-9, AROCLOR 1254, Method: STANDARD PLATE",inactive; negative
same,mutagenic call,[3],inactive; negative
same,mutagenic call,"Test System: AMES SALMONELLA TYPHIMURIUM, Strain/Indicator: TA100, Metabolic Activation: RAT, LIVER, S-9, AROCLOR 1254, Method: STANDARD PLATE",inactive; negative
same,mutagenic call,[5],active; positive
same,mutagenic call,"Test System: AMES SALMONELLA TYPHIMURIUM, Strain/Indicator: TA102, Metabolic Activation: RAT, LIVER, S-9, AROCLOR 1254, Method: STANDARD PLATE",inactive; negative
CCN=NNCC,mutagenic call,[6],active; positive
